The source of these data is ChEMBL document CHEMBL4806966, “Methods for treating centronuclear myopathy” (2020).

The species named for experiment [1] is Homo sapiens. The experiment can be described thus: Selectivity index, ratio of IC50 for human PIK3C2B to IC50 for PI3Kbeta (unknown origin).
Experiment [2] has as its target Phosphatidylinositol 4,5-bisphosphate 3-kinase catalytic subunit beta isoform (Homo sapiens, UniProt P42338). The experiment is described as follows: Inhibition of PI3Kbeta (unknown origin).
Experiment [3] addresses Phosphatidylinositol 4-phosphate 3-kinase C2 domain-containing subunit beta (Homo sapiens) (UniProt O00750). The experiment can be described thus: Inhibition of human PIK3C2B using phosphatidylinositol as substrate at 0.153 nM after 1 hr by TR-FRET based Adapta universal kinase assay. A general note: TR-FRET usually uses a lanthanide donor and a delayed reading to cut background.

The target in experiment [4] is T1, Phosphatidylinositol 4-phosphate 3-kinase C2 domain-containing subunit alpha (Homo sapiens, UniProt O00443). The experiment is described as follows: Inhibition of human PIK3C2A using phosphatidylinositol as substrate at 247 nM after 1 hr by TR-FRET based Adapta universal kinase assay relative to control.
T1 sequence (O00443 whole entry, the tested form may be a part): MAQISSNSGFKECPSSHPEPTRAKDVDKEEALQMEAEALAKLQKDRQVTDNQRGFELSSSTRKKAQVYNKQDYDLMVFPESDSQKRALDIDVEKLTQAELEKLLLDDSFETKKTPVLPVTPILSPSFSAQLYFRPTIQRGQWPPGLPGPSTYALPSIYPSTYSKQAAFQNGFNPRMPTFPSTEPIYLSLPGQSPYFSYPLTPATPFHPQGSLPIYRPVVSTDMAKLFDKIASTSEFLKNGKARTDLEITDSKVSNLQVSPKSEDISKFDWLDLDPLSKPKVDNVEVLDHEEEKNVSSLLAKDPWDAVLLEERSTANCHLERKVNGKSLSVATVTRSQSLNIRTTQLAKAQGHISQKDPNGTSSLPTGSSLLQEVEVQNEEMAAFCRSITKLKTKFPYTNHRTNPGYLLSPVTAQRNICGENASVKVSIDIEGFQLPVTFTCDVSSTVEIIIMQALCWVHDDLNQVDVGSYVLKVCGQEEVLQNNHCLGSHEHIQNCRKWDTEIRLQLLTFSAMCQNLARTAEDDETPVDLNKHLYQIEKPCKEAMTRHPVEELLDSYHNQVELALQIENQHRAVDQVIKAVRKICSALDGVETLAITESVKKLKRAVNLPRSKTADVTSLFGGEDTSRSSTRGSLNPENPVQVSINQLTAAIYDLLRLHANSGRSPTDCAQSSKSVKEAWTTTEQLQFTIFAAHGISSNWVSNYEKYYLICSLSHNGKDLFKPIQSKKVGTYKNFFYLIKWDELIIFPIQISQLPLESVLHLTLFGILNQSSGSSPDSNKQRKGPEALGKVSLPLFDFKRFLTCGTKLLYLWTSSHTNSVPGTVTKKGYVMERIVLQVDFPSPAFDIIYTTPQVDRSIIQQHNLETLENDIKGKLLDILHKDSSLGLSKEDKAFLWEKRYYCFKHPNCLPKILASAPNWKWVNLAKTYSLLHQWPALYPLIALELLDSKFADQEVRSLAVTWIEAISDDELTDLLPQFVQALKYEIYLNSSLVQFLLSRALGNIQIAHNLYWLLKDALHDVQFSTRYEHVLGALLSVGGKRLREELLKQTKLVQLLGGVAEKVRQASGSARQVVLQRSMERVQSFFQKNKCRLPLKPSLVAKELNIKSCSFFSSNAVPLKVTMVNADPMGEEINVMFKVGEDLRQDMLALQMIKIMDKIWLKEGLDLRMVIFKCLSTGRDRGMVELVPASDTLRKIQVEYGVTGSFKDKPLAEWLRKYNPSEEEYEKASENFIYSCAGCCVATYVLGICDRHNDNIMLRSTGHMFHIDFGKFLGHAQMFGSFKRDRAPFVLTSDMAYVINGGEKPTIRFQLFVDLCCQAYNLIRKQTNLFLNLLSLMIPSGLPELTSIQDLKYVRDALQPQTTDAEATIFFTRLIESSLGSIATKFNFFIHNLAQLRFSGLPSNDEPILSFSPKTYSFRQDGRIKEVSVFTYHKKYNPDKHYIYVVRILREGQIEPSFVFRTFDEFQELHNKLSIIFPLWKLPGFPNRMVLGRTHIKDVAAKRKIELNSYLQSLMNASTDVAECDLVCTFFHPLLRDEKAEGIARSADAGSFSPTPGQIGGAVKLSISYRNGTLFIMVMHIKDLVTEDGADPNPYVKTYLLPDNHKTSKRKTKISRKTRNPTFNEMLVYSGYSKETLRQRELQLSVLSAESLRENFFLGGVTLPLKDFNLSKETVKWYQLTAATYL
Experiment [5] deals with T1, Phosphatidylinositol 4-phosphate 3-kinase C2 domain-containing subunit alpha. The experiment can be described thus: Inhibition of human PIK3C2A using phosphatidylinositol as substrate at 741 nM after 1 hr by TR-FRET based Adapta universal kinase assay relative to control.
Experiment [6] has the same target. The experiment is described as follows: Inhibition of human PIK3C2A using phosphatidylinositol as substrate at 6667 nM after 1 hr by TR-FRET based Adapta universal kinase assay relative to control.
Experiment [7] concerns the target Phosphatidylinositol 4-phosphate 3-kinase C2 domain-containing subunit beta (Homo sapiens) (UniProt O00750). The experiment can be described thus: Inhibition of human PIK3C2B using phosphatidylinositol as substrate at 4.1 nM after 1 hr by TR-FRET based Adapta universal kinase assay.
The species entered for experiment [8] is Homo sapiens. The experiment is described as follows: Selectivity index, ratio of IC50 for human PIK3C2A to IC50 for human PIK3C2B.
For experiment [9], the target named is Phosphatidylinositol 4-phosphate 3-kinase C2 domain-containing subunit beta (Homo sapiens) (UniProt O00750). The experiment can be described thus: Inhibition of human PIK3C2B using phosphatidylinositol as substrate at 0.051 nM after 1 hr by TR-FRET based Adapta universal kinase assay.
Phosphatidylinositol 4-phosphate 3-kinase C2 domain-containing subunit beta (Homo sapiens), sequence (O00750 whole entry, the tested form may be a part): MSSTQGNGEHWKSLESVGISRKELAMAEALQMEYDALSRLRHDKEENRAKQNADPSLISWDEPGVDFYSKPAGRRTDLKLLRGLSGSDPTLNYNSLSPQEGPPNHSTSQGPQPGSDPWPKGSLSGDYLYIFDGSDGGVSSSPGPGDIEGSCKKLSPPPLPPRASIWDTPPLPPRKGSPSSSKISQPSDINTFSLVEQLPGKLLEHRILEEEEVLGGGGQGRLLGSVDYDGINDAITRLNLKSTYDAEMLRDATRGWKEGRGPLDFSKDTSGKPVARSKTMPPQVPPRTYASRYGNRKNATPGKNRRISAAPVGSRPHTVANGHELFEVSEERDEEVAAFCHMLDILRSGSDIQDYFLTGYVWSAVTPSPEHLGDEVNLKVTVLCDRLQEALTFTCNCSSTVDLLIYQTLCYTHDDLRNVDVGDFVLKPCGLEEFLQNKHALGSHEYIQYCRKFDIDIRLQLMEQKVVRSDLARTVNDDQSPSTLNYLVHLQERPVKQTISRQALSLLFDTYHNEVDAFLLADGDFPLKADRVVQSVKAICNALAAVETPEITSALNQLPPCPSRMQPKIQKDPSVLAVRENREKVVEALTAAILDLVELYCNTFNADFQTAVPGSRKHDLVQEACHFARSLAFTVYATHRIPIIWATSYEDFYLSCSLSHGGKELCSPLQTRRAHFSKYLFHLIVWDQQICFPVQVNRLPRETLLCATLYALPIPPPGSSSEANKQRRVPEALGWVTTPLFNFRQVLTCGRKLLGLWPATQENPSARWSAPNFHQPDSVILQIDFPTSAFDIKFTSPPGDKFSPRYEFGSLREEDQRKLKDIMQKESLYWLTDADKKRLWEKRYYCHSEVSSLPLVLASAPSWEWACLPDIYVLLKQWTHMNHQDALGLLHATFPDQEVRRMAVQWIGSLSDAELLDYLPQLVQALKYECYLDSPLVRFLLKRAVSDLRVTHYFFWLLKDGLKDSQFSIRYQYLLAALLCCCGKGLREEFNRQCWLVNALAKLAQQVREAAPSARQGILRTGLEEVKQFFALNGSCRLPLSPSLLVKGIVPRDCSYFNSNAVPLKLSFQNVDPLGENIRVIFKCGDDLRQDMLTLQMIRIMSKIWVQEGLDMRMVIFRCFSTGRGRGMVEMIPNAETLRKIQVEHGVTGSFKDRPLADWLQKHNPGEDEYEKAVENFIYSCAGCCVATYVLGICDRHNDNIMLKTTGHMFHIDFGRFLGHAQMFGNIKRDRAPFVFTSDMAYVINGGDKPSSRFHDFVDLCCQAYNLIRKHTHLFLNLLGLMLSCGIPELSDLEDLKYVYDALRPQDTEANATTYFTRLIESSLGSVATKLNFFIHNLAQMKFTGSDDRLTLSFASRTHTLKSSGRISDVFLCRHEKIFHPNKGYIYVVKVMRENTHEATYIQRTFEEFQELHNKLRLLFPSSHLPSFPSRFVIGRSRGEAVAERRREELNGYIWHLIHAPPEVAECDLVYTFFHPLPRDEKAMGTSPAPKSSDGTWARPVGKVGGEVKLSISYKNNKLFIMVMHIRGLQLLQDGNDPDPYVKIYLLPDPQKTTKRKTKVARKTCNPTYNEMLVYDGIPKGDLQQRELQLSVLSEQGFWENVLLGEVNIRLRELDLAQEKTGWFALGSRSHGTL
Experiment [10] addresses T1, Phosphatidylinositol 4-phosphate 3-kinase C2 domain-containing subunit alpha. The experiment is described as follows: Inhibition of human PIK3C2A using phosphatidylinositol as substrate at 27.3 nM after 1 hr by TR-FRET based Adapta universal kinase assay relative to control.
For experiment [11], the target named is Phosphatidylinositol 4-phosphate 3-kinase C2 domain-containing subunit beta (Homo sapiens) (UniProt O00750). The experiment can be described thus: Inhibition of human PIK3C2B using phosphatidylinositol as substrate at 333 nM after 1 hr by TR-FRET based Adapta universal kinase assay.
The target is the same in experiment [12]. The experiment can be described thus: Inhibition of human PIK3C2B using phosphatidylinositol as substrate at 12.3 nM after 1 hr by TR-FRET based Adapta universal kinase assay.
Experiment [13] has the same target. The experiment is described as follows: Inhibition of human PIK3C2B using phosphatidylinositol as substrate at 1000 nM after 1 hr by TR-FRET based Adapta universal kinase assay.
The target is the same in experiment [14]. The experiment can be described thus: Inhibition of human PIK3C2B using phosphatidylinositol as substrate at 37 nM after 1 hr by TR-FRET based Adapta universal kinase assay.
Experiment [15] has the same target. The experiment is described as follows: Inhibition of human PIK3C2B using phosphatidylinositol as substrate at 111 nM after 1 hr by TR-FRET based Adapta universal kinase assay.
For experiment [16], the target named is T1, Phosphatidylinositol 4-phosphate 3-kinase C2 domain-containing subunit alpha. The experiment is described as follows: Inhibition of human PIK3C2A using phosphatidylinositol as substrate at 82 nM after 1 hr by TR-FRET based Adapta universal kinase assay relative to control.
Experiment [17] concerns the target Phosphatidylinositol 4-phosphate 3-kinase C2 domain-containing subunit beta (Homo sapiens) (UniProt O00750). The experiment can be described thus: Inhibition of human PIK3C2B using phosphatidylinositol as substrate at 1.37 nM after 1 hr by TR-FRET based Adapta universal kinase assay.
In experiment [18] the target is T1, Phosphatidylinositol 4-phosphate 3-kinase C2 domain-containing subunit alpha. The experiment can be described thus: Inhibition of human PIK3C2A using phosphatidylinositol as substrate at 20000 nM after 1 hr by TR-FRET based Adapta universal kinase assay relative to control.
Experiment [19] has the same target. The experiment is described as follows: Inhibition of human PIK3C2A using phosphatidylinositol as substrate and 10 uM ATP after 1 hr by TR-FRET based Adapta universal kinase assay.
The target is the same in experiment [20]. The experiment can be described thus: Inhibition of human PIK3C2A using phosphatidylinositol as substrate at 3.03 nM after 1 hr by TR-FRET based Adapta universal kinase assay relative to control.
The target is the same in experiment [21]. The experiment can be described thus: Inhibition of human PIK3C2A using phosphatidylinositol as substrate at 9.1 nM after 1 hr by TR-FRET based Adapta universal kinase assay relative to control.
For experiment [22] the target is unchanged. The experiment is described as follows: Inhibition of human PIK3C2A using phosphatidylinositol as substrate at 2222 nM after 1 hr by TR-FRET based Adapta universal kinase assay relative to control.
Experiment [23] has as its target Phosphatidylinositol 4-phosphate 3-kinase C2 domain-containing subunit beta (Homo sapiens) (UniProt O00750). The experiment is described as follows: Inhibition of human PIK3C2B using phosphatidylinositol as substrate at 0.46 nM after 1 hr by TR-FRET based Adapta universal kinase assay.

Phosphatidylinositol 4,5-bisphosphate 3-kinase catalytic subunit beta isoform, sequence (P42338 whole entry, the tested form may be a part, canonical isoform): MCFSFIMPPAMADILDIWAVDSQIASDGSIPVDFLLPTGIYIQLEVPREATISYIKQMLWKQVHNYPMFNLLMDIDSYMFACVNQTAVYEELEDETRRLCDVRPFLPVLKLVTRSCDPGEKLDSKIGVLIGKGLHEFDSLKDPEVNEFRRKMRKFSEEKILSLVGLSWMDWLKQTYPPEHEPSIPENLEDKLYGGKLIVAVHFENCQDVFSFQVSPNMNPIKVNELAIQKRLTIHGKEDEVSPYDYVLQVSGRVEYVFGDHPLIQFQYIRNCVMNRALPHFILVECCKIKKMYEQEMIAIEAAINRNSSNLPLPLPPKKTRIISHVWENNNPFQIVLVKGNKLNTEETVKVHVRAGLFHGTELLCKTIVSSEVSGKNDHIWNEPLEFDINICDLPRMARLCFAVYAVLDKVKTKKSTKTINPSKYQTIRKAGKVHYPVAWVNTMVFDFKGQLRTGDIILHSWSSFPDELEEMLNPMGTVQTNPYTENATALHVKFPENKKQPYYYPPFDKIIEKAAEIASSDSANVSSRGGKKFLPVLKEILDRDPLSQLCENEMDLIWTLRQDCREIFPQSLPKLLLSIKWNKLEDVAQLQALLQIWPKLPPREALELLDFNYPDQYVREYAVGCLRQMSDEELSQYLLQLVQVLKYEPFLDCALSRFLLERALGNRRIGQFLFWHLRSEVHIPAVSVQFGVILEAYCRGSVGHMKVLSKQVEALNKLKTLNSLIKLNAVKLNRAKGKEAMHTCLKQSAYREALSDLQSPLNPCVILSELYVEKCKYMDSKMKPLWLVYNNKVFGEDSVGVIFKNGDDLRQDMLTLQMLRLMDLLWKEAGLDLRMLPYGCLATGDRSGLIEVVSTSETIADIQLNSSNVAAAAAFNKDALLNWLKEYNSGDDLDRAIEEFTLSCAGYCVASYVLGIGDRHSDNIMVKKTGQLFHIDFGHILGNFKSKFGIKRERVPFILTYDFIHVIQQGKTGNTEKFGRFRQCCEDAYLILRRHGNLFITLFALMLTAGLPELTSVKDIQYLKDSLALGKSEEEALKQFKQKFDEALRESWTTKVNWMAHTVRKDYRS

In the case of `Cc1c(Cn2c(C)nc(=O)c3sc(N4CCOCC4)nc32)cccc1C(F)(F)F`, the Ratio IC50 in experiment [1] came to 6. It took 0.016 µM to reach half-maximal inhibition in experiment [2] (IC50).
In the case of `CN(C)C(=O)c1ccc2c(c1)c(C[C@H]1COCCN1c1nc3c(s1)C(=O)NC(C)(C)C3)cn2C`, the inhibition (usually the drop in the measured response relative to a control, in per cent) in [3] was -3%; in experiment [4] it was 6%; in experiment [5], 17%; in [6], 46%; in [7] it was 27%; in experiment [9], 16%. The inhibition in experiment [10] was -4%; in experiment [11] it was 93%; in experiment [12], 49%; in experiment [13], 93%; in [14], 74%; in [15] it was 90%. The inhibition in experiment [16] is 0%; in [17] it was 21%; in experiment [18] it was 78%; in [20], -3%; in experiment [21], -3%; in experiment [22] it was 36%. Further, the inhibition in [23] was found to be 10%. Besides, in experiment [8], the Ratio IC50 is 449. Also, half-maximal inhibition in [19] (IC50) required 9.57 µM.
